Laboratory results published in US20090082423A1, “SOLUBLE EPOXIDE HYDROLASE INHIBITORS” (Arete Therapeutics, Inc., priority 2007, published 2009).

Key:
[1] = test system: soluble epoxide hydrolase (sEH); assay: Fluorescent assay for mouse and human soluble epoxide hydrolase (CMNPC substrate); format: biochemical; details: Conc 200 nM; recombinant sEH, CMNPC 5 μM, 30° C.; mouse or human enzyme not stated
From the text: Fluorescent Assay for Mouse and Human Soluble Epoxide Hydrolase
Recombinant mouse sEH (MsEH) and human sEH (HsEH) were produced in a baculovirus expression system as previously reported. Grant et al., J. Biol. Chem., 268:17628-17633 (1993); Beetham et al., Arch. Biochem. Biophys., 305:197-201 (1993). The expressed proteins were purified from cell lysate by affinity chromatography. Wixtrom et al., Anal. Biochem., 169:71-80 (1988). Protein concentration was quantified using the Pierce BCA assay using bovine serum albumin as the calibrating standard. The preparations were at least 97% pure as judged by SDS-PAGE and scanning densitometry. They contained no detectable esterase or glutathione transferase activity which can interfere with the assay. The assay was also evaluated with similar results in crude cell lysates or homogenate of tissues.
The IC50s for each inhibitor were according to the following procedure:
Cyano(2-methoxynaphthalen-6-yl)methyl (3-phenyloxiran-2-yl)methyl carbonate (CMNPC; Jones P. D. et. al.; Analytical Biochemistry 2005; 343: pp. 66-75)
Bis/Tris HCl 25 mM pH 7.0 containing 0.1 mg/mL of BSA (buffer A)
CMNPC at 0.25 mM in DMSO.
Mother solution of enzyme in buffer A (Mouse sEH at 6 μg/mL and Human sEH at 5 μg/mL).
Inhibitor dissolved in DMSO at the appropriate concentration.
In a black 96 well plate, fill all the wells with 150 μL of buffer A.
Add 2 μL of DMSO in well A2 and A3, and then add 2 μL of inhibitor solution in A1 and A4 through A12.
Add 150 μL of buffer A in row A, then mix several time and transfer 150 μL to row B. Repeat this operation up to row H. The 150 μL removed from row H go to the trash.
Add 20 μL of buffer A in column 1 and 2, then add 20 μL of enzyme solution to column 3 to 12.
Incubate the plate for 5 minutes in the plate reader at 30° C.
During incubation prepare the working solution of substrate by mixing 3.68 mL of buffer A (4×0.920 mL) with 266 μL (2×133 μL) of substrate solution).
At t=0, add 30 μL of working substrate solution with multi-channel pipette labeled “Briggs 303” and start the reading ([S]final: 5 μM).
Read with ex: 330 nm (20 nm) and em: 465 nm (20 nm) every 30 second for 10 minutes. The velocities are used to analyze and calculate the IC50s.

SMILES	% Inh (percent inhibition) [1]	melting point
O=C(NCC1CCOCC1)NC12CC3CC(CC(C3)C1)C2 [Compound 1, 1-adamantan-1-yl-3-((tetrahydro-2H-pyran-4-yl)methyl)urea]	89%	196 to 198 °C
CC1(C)CC(NC(=O)NC23CC4CC(CC(C4)C2)C3)CC(C)(C)C1=O [Compound 6, 1-adamantan-1-yl-3-(3,3,5,5-tetramethyl-4-oxocyclohexyl)urea]	100%	234 to 238 °C
O=C(NC1CCS(=O)(=O)CC1)NC12CC3CC(CC(C3)C1)C2 [Compound 7, 1-adamantan-1-yl-3-(1,1-dioxo-tetrahydro-2H-thiopyran-4-yl)urea]	82%	244 to 246 °C
O=C(NC1CCOCC1)NC12CC3CC(CC(C3)C1)C2 [Compound 8, 1-adamantan-1-yl-3-(tetrahydro-2H-pyran-4-yl)urea]	90%	239 to 242 °C

Further lines, results first:

% Inh (percent inhibition) [1]	melting point	SMILES
70%	148 to 149 °C	O=C(NCC1CCOCC1)Nc1ccc(C(F)(F)F)cc1 [Compound 2, 1-((tetrahydro-2H-pyran-4-yl)methyl)-3-(4-(trifluoromethyl)phenyl)urea]
91%	196 to 198 °C	O=C(Nc1ccc(C(F)(F)F)cc1)NC1CCOCC1 [Compound 3, 1-(tetrahydro-2H-pyran-4-yl)-3-(4-(trifluoromethyl)phenyl)urea]
92%	196 to 198 °C	O=C(Nc1ccc(C(F)(F)F)cc1)NC1CCS(=O)(=O)CC1 [Compound 4, 1-(1,1-dioxo-tetrahydro-2H-thiopyran-4-yl)-3-(4-(trifluoromethyl)phenyl)urea]
98%	152 to 153 °C	CC1(C)CC(NC(=O)Nc2ccc(C(F)(F)F)cc2)CC(C)(C)C1=O [Compound 5, 1-(3,3,5,5-tetramethyl-4-oxocyclohexyl)-3-(4-(trifluoromethyl)phenyl)urea]
